Test results taken from US20150197492A1, “NOVEL INDENO[1,2-c]QUINOLIN-11-ONE DERIVATIVES, PREPARATION METHOD AND APPLICATION THEREOF” (National Defense Medical Center, priority 2014, published 2015).

Key:
Assay type in all cases: cell-based
[1] = tested on: 55 to 60 cancer cell lines; conditions: 10 μM, 48 hours; for Mean (mean growth percentage of the tested cancer cell lines): all tested cell lines
K-562 = test: cells; conditions: K-562 (Leukemia), 10 μM, 48 hours
MOLT-4 = test: cells; conditions: MOLT-4 (Leukemia), 10 μM, 48 hours
RPMI-8226 = test: cells; conditions: RPMI-8226 (Leukemia), 10 μM, 48 hours
SR = test: cells; conditions: SR (Leukemia), 10 μM, 48 hours
HOP-92 = test: cells; conditions: HOP-92 (Non-Small Cell Lung Cancer), 10 μM, 48 hours
NCI-H23 = test: cells; conditions: NCI-H23 (Non-Small Cell Lung Cancer), 10 μM, 48 hours
NCI-H322M = test: cells; conditions: NCI-H322M (Non-Small Cell Lung Cancer), 10 μM, 48 hours
NCI-H460 = test: cells; conditions: NCI-H460 (Non-Small Cell Lung Cancer), 10 μM, 48 hours
NCI-H522 = test: cells; conditions: NCI-H522 (Non-Small Cell Lung Cancer), 10 μM, 48 hours
COLO 205 = test: cells; conditions: COLO 205 (Colon Cancer), 10 μM, 48 hours
SW-620 = test: cells; conditions: SW-620 (Colon Cancer), 10 μM, 48 hours
SNB-19 = test: cells; conditions: SNB-19 (CNS Cancer), 10 μM, 48 hours
SNB-75 = test: cells; conditions: SNB-75 (CNS Cancer), 10 μM, 48 hours
LOX IMVI = test: cells; conditions: LOX IMVI (Melanoma), 10 μM, 48 hours
M14 = test: cells; conditions: M14 (Melanoma), 10 μM, 48 hours
SK-MEL-2 = test: cells; conditions: SK-MEL-2 (Melanoma), 10 μM, 48 hours
SK-MEL-5 = test: cells; conditions: SK-MEL-5 (Melanoma), 10 μM, 48 hours
OVCAR-3 = test: cells; conditions: OVCAR-3 (Ovarian Cancer), 10 μM, 48 hours
OVCAR-4 = test: cells; conditions: OVCAR-4 (Ovarian Cancer), 10 μM, 48 hours
OVCAR-5 = test: cells; conditions: OVCAR-5 (Ovarian Cancer), 10 μM, 48 hours
OVCAR-8 = test: cells; conditions: OVCAR-8 (Ovarian Cancer), 10 μM, 48 hours
SK-OV-3 = test: cells; conditions: SK-OV-3 (Ovarian Cancer), 10 μM, 48 hours
786-0 = test: cells; conditions: 786-0 (Renal Cancer), 10 μM, 48 hours
ACHN = test: cells; conditions: ACHN (Renal Cancer), 10 μM, 48 hours
RXF 393 = test: cells; conditions: RXF 393 (Renal Cancer), 10 μM, 48 hours
SN12C = test: cells; conditions: SN12C (Renal Cancer), 10 μM, 48 hours
TK-10 = test: cells; conditions: TK-10 (Renal Cancer), 10 μM, 48 hours
UO-31 = test: cells; conditions: UO-31 (Renal Cancer), 10 μM, 48 hours
PC-3 = test: cells; conditions: PC-3 (Prostate Cancer), 10 μM, 48 hours
T-47D = test: cells; conditions: T-47D (Breast Cancer), 10 μM, 48 hours
MDA-MB-468 = test: cells; conditions: MDA-MB-468 (Breast Cancer), 10 μM, 48 hours

CN(C)c1nc2ccccc2c2c1-c1ccc(Cl)cc1C2=O [SJ-2, 9-Chloro-6-(dimethylamino)-11H-indeno[1,2-c]quinolin-11-one]
inhibition effect in different cancer cell lines (summary of the NCI data, in words) [1]: more effective in breast cancer cell line
Mean (mean growth percentage of the tested cancer cell lines) [1]: 87.15%
growth percentage (K-562): 88.81%
growth percentage (MOLT-4): 88.92%
growth percentage (RPMI-8226): 88.05%
growth percentage (SR): 86.12%
growth percentage (HOP-92): 44.26%
growth percentage (NCI-H23): 82.62%
growth percentage (NCI-H322M): 78.83%
growth percentage (NCI-H460): 94.17%
growth percentage (NCI-H522): 88.97%
growth percentage (COLO 205): 100.97%
growth percentage (SW-620): 96.35%
growth percentage (SNB-19): 104.19%
growth percentage (SNB-75): 69.12%
growth percentage (LOX IMVI): 85.45%
growth percentage (M14): 113.63%
growth percentage (SK-MEL-2): 95.09%
growth percentage (SK-MEL-5): 94.89%
growth percentage (OVCAR-3): 103.48%
growth percentage (OVCAR-4): 84.28%
growth percentage (OVCAR-5): 89.14%
growth percentage (OVCAR-8): 84.55%
growth percentage (SK-OV-3): 99.12%
growth percentage (786-0): 108.01%
growth percentage (ACHN): 87.55%
growth percentage (RXF 393): 101.32%
growth percentage (SN12C): 95.38%
growth percentage (TK-10): 91.84%
growth percentage (UO-31): 48.63%
growth percentage (PC-3): 82.55%
growth percentage (T-47D): 44.88%
growth percentage (MDA-MB-468): 0.60%

COc1nc2ccccc2c2c1-c1ccc(Cl)cc1C2=O [SJ-27, 6-Methoxy-9-chloro-11H-indeno[1,2-c]quinolin-11-one]
Mean (mean growth percentage of the tested cancer cell lines) [1]: 96.23%
growth percentage (K-562): 108.53%
growth percentage (MOLT-4): 110.33%
growth percentage (RPMI-8226): 90.30%
growth percentage (HOP-92): 77.75%
growth percentage (NCI-H23): 93.26%
growth percentage (NCI-H322M): 99.80%
growth percentage (NCI-H460): 98.27%
growth percentage (NCI-H522): 95.89%
growth percentage (COLO 205): 108.91%
growth percentage (SW-620): 98.89%
growth percentage (SNB-19): 96.35%
growth percentage (SNB-75): 59.75%
growth percentage (LOX IMVI): 116.91%
growth percentage (M14): 96.50%
growth percentage (SK-MEL-2): 109.44%
growth percentage (SK-MEL-5): 98.51%
growth percentage (OVCAR-3): 111.89%
growth percentage (OVCAR-5): 96.81%
growth percentage (OVCAR-8): 98.75%
growth percentage (SK-OV-3): 119.79%
growth percentage (786-0): 103.51%
growth percentage (ACHN): 90.83%
growth percentage (RXF 393): 114.49%
growth percentage (SN12C): 89.48%
growth percentage (UO-31): 55.69%
growth percentage (PC-3): 74.44%
growth percentage (T-47D): 78.97%
growth percentage (MDA-MB-468): 99.51%
